The values that follow are results of earlier work, collected in patent US10391087B2, “Combination of oxymetazoline and ipratropium in topical nasal application for the treatment of a cough” (priority 2015, dated 2019).

Like-named read-outs stand apart in the source and are kept apart here.

In data set [1] the test system is nasal secretion (rhinorrhea).
Data set [2] deals with ileum guinea pigs nerve tissue. Particulars: range 20 to 70% with increasing concentrations of noradrenaline.
The subject of data set [3] is cardiac response of rabbit vagal electrical stimulation. Particulars: rabbit heart.
The target of a further data set is T1, human α1A-adrenoceptors (Homo sapiens, UniProt P35348).
T1 sequence (P35348 1-466): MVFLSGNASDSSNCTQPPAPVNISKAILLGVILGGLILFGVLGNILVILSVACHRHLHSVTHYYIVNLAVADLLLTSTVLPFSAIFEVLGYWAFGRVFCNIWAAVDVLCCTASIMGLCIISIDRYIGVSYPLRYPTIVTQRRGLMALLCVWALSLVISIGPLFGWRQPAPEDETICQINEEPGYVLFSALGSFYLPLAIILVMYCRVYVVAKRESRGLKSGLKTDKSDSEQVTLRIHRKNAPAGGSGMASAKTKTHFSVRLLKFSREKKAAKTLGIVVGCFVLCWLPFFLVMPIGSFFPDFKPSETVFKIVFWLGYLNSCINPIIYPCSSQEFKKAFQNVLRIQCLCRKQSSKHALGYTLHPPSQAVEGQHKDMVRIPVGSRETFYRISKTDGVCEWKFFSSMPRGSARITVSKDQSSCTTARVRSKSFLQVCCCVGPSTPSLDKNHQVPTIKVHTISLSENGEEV
Particulars: heterologous cells expressing human α1A-adrenoceptors.

In another data set the test system is α-1 and α-2 receptors. Particulars: inhibited by α-1 antagonist prazosin, minimal inhibition by α-2 antagonist yohimbine.

As to `CC(C)[N+]1(C)[C@@H]2CC[C@H]1C[C@@H](OC(=O)C(CO)c1ccccc1)C2` (stereo partly shown) [ipratropium], in data set [1] (four studies, ipratropium alone, intranasally), the nasal discharge entry is given as “lower nasal discharge”.
`Cc1cc(C(C)(C)C)cc(C)c1CC1=NCCN1` [xilometazoline]: the rhinorrhea entry is listed as “decreased rhinorrhea” in data set [1] (5 to 10 days after start of the infectious process, p<0.05) and “increases” in data set [1] (another study, measured on day 1 of administration). Also, in data set [1] (Eccles 2008, xilometazoline alone, p<0.05), the “nasal secretion compared with placebo” value is “decreased nasal secretion”.
As to `NC[C@H](O)c1ccc(O)c(O)c1` [Noradrenaline, noradrenaline], in data set [2], the “reduction of acetilcoline discharge, average” value was 56.8%.
Regarding `Cc1cc(C(C)(C)C)c(O)c(C)c1CC1=NCCN1` [oximetazoline, oxymetazoline], the “cardiac response of vagal electrical stimulation” value in data set [3] is on record as “significantly inhibited”. Further, the blood pressure entry is on record as “significant increase in blood pressure” (large doses of 0.3%) and “no” (standard doses of 0.01 to 0.1%). In addition, at human α1A-adrenoceptors, the “Ca2+ responses” value is given as “induce responses Ca^2+”. The contraction entry with α-1 and α-2 receptors is reported as “dose dependent contraction”.
